Columns and labels:
[1] = Solubility in water; format: physicochemical
[2] = inhalation, cited from earlier work
[3] = Quantification of sphingosine on the coated surface by mass spectrometry; format: physicochemical; conditions: mass spectrometry (FIG. 18A)
Method: Coated plastic surfaces were extracted by a one-step lipid extraction. Briefly, a plastic piece was transferred into a siliconized glass tube and adsorbed sphingosine was extracted by addition of 10 mL methanol and sonification on ice for 1 hour. After centrifugation, the lipid extract was diluted with methanol and 50 pmol of C17-sphingosine was added as internal standard. […] Ion funnel parameters were: high pressure RF voltage 110 V and low pressure RF voltage 60 V. Multiple reaction monitoring (MRM) transition 300.3 m/z>282.3 m z at 8 eV collision energy was used for quantification of sphingosine, whereas MRM transition 286.3 m/z>268.3 m/z at 8 eV collision energy was used for quantification of C17-sphingosine. Quantification was performed with Mass Hunter Software (Agilent Technologies).
To determine the total amount of sphingosine present on the surface of the endotracheal tubes after dip coating, we performed mass spectrometry (FIG. 18A) and a sphingosine kinase radioactivity assay (FIG. 18B). […] Sphingosine was either extracted and analyzed by mass spectrometry (FIG. 18A) or sphingosine kinase assay (FIG. 18B). The amount of sphingosine calculated on the surface after dip coating is (A) 131 nmol/cm^2 and (B) 152.5 nmol/cm^2, respectively.

[4] = Quantification of sphingosine on the coated surface by sphingosine kinase assay; format: physicochemical; conditions: sphingosine kinase assay (FIG. 18B)
Method: Plastic pieces were extracted in CHCl3/CH3OH/1N HCl (100:100:1, v/v/v), the lower phase was dried and resuspended in a detergent solution (7.5% [w/v] n-octyl glucopyranoside, 5 mM cardiolipin in 1 mM diethylenetriaminepentaacetic acid (DTPA)). The kinase reaction was initiated by addition of 0.004 units sphingosine kinase in 50 mM HEPES (pH 7.4), 250 mM NaCl, 30 mM MgCl2 1 μM ATP and 5 μCi [^32P]γATP. Samples were incubated for 60 min at 37° C. with shaking (350 rpm), then extracted in 20 μl 1N HCl, 800 μl CHCl3/CH3OH/1N HCl (100:200:1, v/v/v), 240 μl CHCl3 and 2 M KCl. The lower phase was collected, dried, dissolved in 20 μL of CHCl3:CH3OH (1:1, v/v) and separated on Silica G60 thin layer chromatography (TLC) plates using CHCl3/CH3OH/acetic acid/H2O (90:90:15:5, v/v/v/v) for SPH. The TLC plates were analyzed using a phosphoimager.
To determine the total amount of sphingosine present on the surface of the endotracheal tubes after dip coating, we performed mass spectrometry (FIG. 18A) and a sphingosine kinase radioactivity assay (FIG. 18B). Both methods confirmed a concentration of sphingosine in the nmol to μmol range per cm^2. […] Sphingosine was either extracted and analyzed by mass spectrometry (FIG. 18A) or sphingosine kinase assay (FIG. 18B). The amount of sphingosine calculated on the surface after dip coating is (A) 131 nmol/cm^2 and (B) 152.5 nmol/cm^2, respectively.

SMILES	solubility in water [1]	observable toxicity ([2]; mice)	rates of pneumonia ([2]; susceptible mice)	amount of sphingosine calculated on the surface after dip coating [3] [nmol/cm^2]	amount of sphingosine calculated on the surface after dip coating [4] [nmol/cm^2]
CCCCCCCCCCCCCC[C@@H](O)[C@@H](O)[C@@H](N)CO [phytosphingosine, D-ribo-phytosphingosine]	nearly completely insoluble in water				
CCCCCCCCCCCCC/C=C/[C@@H](O)[C@@H](N)CO [sphingosine, D-erythrosphingosine (d18:1)]	nearly completely insoluble in water	did not result in any observable toxicity	reduce rates of pneumonia in susceptible mice	131	152.5

From patent US12186457B2, “Sphingolipid coatings and process for manufacturing sphingolipid coatings effective for inhibiting biofilm formation” (UNIVERSITY OF CINCINNATI, priority 2015, dated 2025)
